Reference: patent US20220153746A1, “NITROGEN OXIDE-DONATING PDE-5 AND/OR PDE-6 INHIBITOR COMPOUNDS, AND USES THEREOF” (ILDONG PHARMACEUTICAL CO., LTD., priority 2020, published 2022)
Where “and” joins values, the source holds several entries; their conditions need not be identical. Equal values may be shown once. Read-outs that look alike come from different tables or passages of the source.

Test: TD Phase (Groups 1 and 3): plasma and ocular tissue concentrations and pharmacokinetics of Compound 18 and its metabolite Compound 4 after once daily ocular instillation of Compound 18 nanosuspension for 7 days
Format: in vivo, New Zealand white rabbits
Conditions: for Compound 18 Lens Homogenate Conc.: homogenate dilution factor 5; for Cornea homogenate concentration: homogenate dilution factor 15; for concentration at 1 h: Group 1, 1 h
From the text: This example illustrates the procedures and results for the levels of Compound 18 and its metabolite Compound 4 in plasma and ocular tissues of normotensive rabbits following ocular instillation of Compound 18 once daily for 7 consecutive days.
Twenty five (25) male New Zealand white rabbits were divided into 5 groups of varying amounts of animals per group.
The Test article, Compound 18 was formulated as a 2% nanosuspension in DI water containing 0.2% PS80 (polyoxyethylenesorbitan, monooleate (Tween 80)) and 0.4% HPMC (hydroxypropylmethylcellulose) at pH 6.77. Referred to herein as “Compound 18 nanosuspension.”
The study consisted of three groups (Groups 1-3) of 19 male rabbits (NZW) that underwent once daily morning ocular installation (1 eyedrop) for 7 consecutive days (Day 0-6). Groups 4-5 each consisted of 3 male rabbits (NZW) that were not dosed.
Blood samples (1 mL) were collected from the jugular vein at the intervals set out below for each group. The samples were then inverted several times following collection and held on wet ice until centrifuged. Samples were centrifuged within 60 minutes of collection under refrigeration (set at 5° C. for 10 minutes at 2000 g.
Group 1 (Pilot Study, terminal blood collection): blood was collected from 3 animals at 1 hour post day 7 dose of Compound 18 nanosuspension.
Group 3 (TD Phase, terminal blood collection): blood was collected from 3 animals at 0.5 hour, 3 animals at 2 hours, 3 animals at 4 hours, and 3 animals at 8 hours post day 7 dose of Compound 18 nanosuspension.
(§1) Group 1 (Pilot Study): 3 animals were terminated at 1 hour post Day 7 dose of Compound 18 nanosuspension. Following blood collection and termination, ocular tissues (aqueous humor, vitreous humor, cornea, iris/ciliary body, lens, optic nerve, retina, sclera/choroid, and trabecular meshwork) were collected from each animal and the tissue weights were recorded. Note: sclera and choroid were collected together. Iris and ciliary body were collected together.
as §1, with “3 (TD Phase):” for “1 (Pilot Study):”, “0.5 hour, 3 animals at 2 hours, 3 animals at 4 hours, and 3 animals at 8 hours” for “1 hour”
Plasma and tissue samples from treated animals (Groups 1-3) were analyzed for Compound 18 and its metabolite Compound 4 concentrations by LC-MS/MS.
Pharmacokinetic analysis was conducted using WinNonlin Version 6.2.1 (Pharsight, Mountain View, Calif.), operating as a validated software system. Noncompartmental analysis was conducted using the extravascular administration model for ocular instillation dosing.
The peak plasma and ocular tissue concentration, time to achieve peak plasma and ocular tissue concentration, half-life, and area under the plasma and ocular tissue concentration-time curve (Cmax, Tmax, T1/2, and AUC) were calculated from the TD phase combined with the pilot study mean animal plasma and ocular tissue concentrations for each sampling time/dose group for Compound 18 and its metabolite Compound 4.
BA Assay: Quantitation Range 0.05 to 100 ng/mL for Compound 18, 0.15 to 100 ng/mL for Compound 4.
3. Pipet 50 μL of each type of pre-spiked ocular tissue samples (AH/VH) for QC samples, 50 μL of incurred aqueous humor, and vitreous humor sample (if applicable) into a 96 well plate.
Ocular Tissues Homogenate Preparation: Incurred rabbit ocular tissues were weighed in Genogrinder tubes (plastic tubes with small beads) at the time of removal from the animal and stored frozen (<−70° C.) until analysis. The rabbit incurred ocular tissues were thawed on wet ice. […]

[1] = TD Phase, Group 3, 4 h, Mean, BQL set to 0
[2] = TD Phase, Group 3, 4 h, individual animals
[3] = TD Phase, Group 3, 4 h, individual animals, BQL set to 0
[4] = TD Phase, Group 3, 4 h, individual animals, homogenate dilution factor 20
[5] = TD Phase, Group 3, 8 h, Mean, BQL set to 0
[6] = TD Phase, Group 3, 8 h, individual animals
[7] = TD Phase, Group 3, 8 h, individual animals, BQL set to 0
[8] = TD Phase, Group 3, 8 h, individual animals, homogenate dilution factor 20

CCCc1nn(C)c2c(=O)[nH]c(-c3cc(S(=O)(=O)N4CC(CCCO[N+](=O)[O-])C4)ccc3OCC)nc12 [Compound 18, 3-(1-((4-ethoxy-3-(1-methyl-7-oxo-3-propyl-6,7-dihydro-1H-pyrazolo[4,3-d]pyrimidin-5-yl)phenyl)sulfonyl)azetidin-3-yl)propyl nitrate]
Compound 18 Trahecular Meshwork Homogenate Conc. (TD Phase, Group 3, 2 h, individual animals, homogenate dilution factor 20): BQL (BQL = Below lower limit of quantitation (0.0500 ng/mL for Compound 18)
Compound 18 Retina Homogenate Conc. (TD Phase, Group 3, 2 h, individual animals, homogenate dilution factor 20 (164 for animal 207671)): 0.192 ng/mL and 3.47 ng/mL and 0.17 ng/mL
Compound 18 Aqueous Humor Conc. [1]: BQL (BQL = Below lower limit of quantitation (0.0500 ng/mL for Compound 18)
Compound 18 Plasma Conc. [1]: BQL (BQL = Below lower limit of quantitation (0.0500 ng/mL for Compound 18)
Compound 18 Vitreous Humor Conc. [1]: BQL (BQL = Below lower limit of quantitation (0.0500 ng/mL for Compound 18)
Compound 18 Aqueous Humor Conc. [2]: BQL (BQL = Below lower limit of quantitation (0.0500 ng/mL for Compound 18)
Compound 18 Plasma Conc. [2]: BQL (BQL = Below lower limit of quantitation (0.0500 ng/mL for Compound 18)
Compound 18 Vitreous Humor Conc. [2]: BQL (BQL = Below lower limit of quantitation (0.0500 ng/mL for Compound 18)
Final Compound 18 Optic Nerve Conc. [2]: 248 ng/g and 31.4 ng/g and 104 ng/g
Final Compound 18 Iris/Ciliary Body Conc. [3]: 5.78 ng/g and 0 ng/g and 8.84 ng/g
Final Compound 18 Lens Conc. [3]: 0 ng/g (2×) and 0.384 ng/g
Final Compound 18 Retina Conc. [3]: 39.6 ng/g and 6.02 ng/g and 36.2 ng/g
Compound 18 Lens Homogenate Conc. [2]: BQL (BQL = Below lower limit of quantitation (0.0500 ng/mL for Compound 18)
Cornea homogenate concentration [2]: BQL (BQL = Below lower limit of quantitation (0.0500 ng/mL for Compound 18)
Compound 18 Iris/Ciliary Body Homogenate Conc. [4]: BQL (BQL = Below lower limit of quantitation (0.0500 ng/mL for Compound 18) and 0.442 ng/mL
Compound 18 Optic Nerve Homogenate Conc. [4]: 12.4 ng/mL and 1.57 ng/mL and 5.20 ng/mL
Compound 18 Retina Homogenate Conc. [4]: 1.98 ng/mL and 0.301 ng/mL and 1.81 ng/mL
Compound 18 Aqueous Humor Conc. [5]: BQL (BQL = Below lower limit of quantitation (0.0500 ng/mL for Compound 18)
Compound 18 Vitreous Humor Conc. [5]: BQL (BQL = Below lower limit of quantitation (0.0500 ng/mL for Compound 18)
Compound 18 Aqueous Humor Conc. [6]: BQL (BQL = Below lower limit of quantitation (0.0500 ng/mL for Compound 18)
Compound 18 Plasma Conc. [6]: BQL (BQL = Below lower limit of quantitation (0.0500 ng/mL for Compound 18)
Compound 18 Vitreous Humor Conc. [6]: BQL (BQL = Below lower limit of quantitation (0.0500 ng/mL for Compound 18)
Final Compound 18 Optic Nerve Conc. [6]: 26.2 ng/g and 108 ng/g and 50.6 ng/g
Final Compound 18 Iris/Ciliary Body Conc. [7]: 2.90 ng/g and 0 ng/g (2×)
Final Compound 18 Lens Conc. [7]: 0 ng/g
Final Compound 18 Retina Conc. [7]: 8.70 ng/g and 3.64 ng/g and 9.16 ng/g
Compound 18 Lens Homogenate Conc. [6]: BQL (BQL = Below lower limit of quantitation (0.0500 ng/mL for Compound 18)
Cornea homogenate concentration [6]: BQL (BQL = Below lower limit of quantitation (0.0500 ng/mL for Compound 18)
Compound 18 Iris/Ciliary Body Homogenate Conc. [8]: BQL (BQL = Below lower limit of quantitation (0.0500 ng/mL for Compound 18)
Compound 18 Optic Nerve Homogenate Conc. [8]: 1.31 ng/mL and 5.41 ng/mL and 2.53 ng/mL
Compound 18 Retina Homogenate Conc. [8]: 0.435 ng/mL and 0.182 ng/mL and 0.458 ng/mL
Compound 18 Trahecular Meshwork Homogenate Conc. [8]: BQL (BQL = Below lower limit of quantitation (0.0500 ng/mL for Compound 18)
tissue of highest concentration (TD phase plasma and ocular tissues): highest in optic nerve and sclera/choroid
AUC0-8 (aqueous humor, vitreous humor, plasma, and lens (relatively low exposure)): 0.02-1.2 h*ng/mL or h*ng/g
AUC0-8 (cornea, Day 7, from mean concentrations): 209 ng·h/g
AUC0-8 (iris/ciliary body, Day 7, from mean concentrations): 150 ng·h/g
AUC0-8 (lens, Day 7, from mean concentrations): 1.19 ng·h/g
concentration at 1 h (male, New Zealand white, rabbit, aqueous humor, other: ocular instillation (eye drop), 0.8 mg/kg/day, TD Phase, Mean, BQL set to 0, read-out: Compound 18 Aqueous Humor Conc.): 0.063 ng/mL
concentration at 1 h (male, New Zealand white, rabbit, aqueous humor, other: ocular instillation (eye drop), 0.8 mg/kg/day, TD Phase, individual animals, read-out: Compound 18 Aqueous Humor Conc.): 0.189 ng/mL
concentration at 4 h (male, New Zealand white, rabbit, iris/ciliary body homogenate, topical, 2 mg/day, TD Phase, Group 3, 4 h, individual animals, homogenate dilution factor 20, read-out: Compound 18 Iris/Ciliary Body Homogenate Conc.): 0.289 ng/mL
concentration at 8 h (male, New Zealand white, rabbit, iris/ciliary body homogenate, topical, 2 mg/day, TD Phase, Group 3, 8 h, individual animals, homogenate dilution factor 20, read-out: Compound 18 Iris/Ciliary Body Homogenate Conc.): 0.145 ng/mL
concentration at 1 h (male, New Zealand white, rabbit, iris/ciliary body, topical, 0.798 mg/kg/day, TD Phase, Mean, read-out: Final Compound 18 Iris/Ciliary Body Conc.): 107 ng/g
concentration at 0.5 h (male, New Zealand white, rabbit, iris/ciliary body, topical, 0.798 mg/kg/day, TD Phase, Group 3, 0.5 h, Mean, read-out: Final Compound 18 Iris/Ciliary Body Conc.): 90.1 ng/g
